Data: PubChem BioAssay (NCI)
“And” between values parts separate entries of the source, which are not always exact repeats. Equal values may be shown once.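 Exposure lasted 48 hours, with cells grown in 96-well plates and compounds tested at five concentrations. The concentration for 50% growth inhibition is given as GI50. TGI is the concentration that stops growth completely.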

Key:
Assay in all cases: NCI anticancer screen, dose series, 48 h
SK-MEL-2 melanoma = test system: SK-MEL-2 melanoma
MDA-MB-231 breast = test system: MDA-MB-231 breast
NCI-H522 lung = test system: NCI-H522 lung
MALME-3M melanoma = test system: MALME-3M melanoma
DU-145 prostate = test system: DU-145 prostate
SN12C renal = test system: SN12C renal
K-562 leukemia = test system: K-562 leukemia
SK-MEL-28 melanoma = test system: SK-MEL-28 melanoma
IGROV1 ovarian = test system: IGROV1 ovarian
TK-10 renal = test system: TK-10 renal

Row | Structure (SMILES) | GI50 (SK-MEL-2 melanoma) | TGI (SK-MEL-2 melanoma) | GI50 (MDA-MB-231 breast) | TGI (MDA-MB-231 breast) | GI50 (NCI-H522 lung) | TGI (NCI-H522 lung) | GI50 (MALME-3M melanoma) | TGI (MALME-3M melanoma) | GI50 (DU-145 prostate) | TGI (DU-145 prostate) | GI50 (SN12C renal) [µM] | TGI (SN12C renal) [µM] | GI50 (K-562 leukemia) | TGI (K-562 leukemia) | GI50 (SK-MEL-28 melanoma) | TGI (SK-MEL-28 melanoma) | GI50 (IGROV1 ovarian) | TGI (IGROV1 ovarian) | GI50 (TK-10 renal) | TGI (TK-10 renal)
1 | COc1ccc2[nH]cc(-c3nc(-c4c[nH]c5ncccc45)cs3)c2c1 | 8.36 µM | > 100 µM | 2.21 µM | > 100 µM | 8.02 µM | > 100 µM | 4.95 µM | > 100 µM | 5.69 µM | > 100 µM | 4.96 | > 100 | 2.68 µM | > 100 µM | 6.43 µM | > 100 µM | 5.46 µM | > 100 µM | 5.47 µM | > 100 µM
2 | CC(C)=CCc1cc(O)cc2c1OC(C=C(C)C)C1=C2C(=O)C2=C(NCCS2(=O)=O)C1=O (stereo not given) | 2.85 µM | 7.13 µM | 0.527 µM | 5.09 µM | 2.64 µM | 7.41 µM | 0.159 µM | 0.834 µM | 2.18 µM | 4.31 µM | 0.414 | 2.02 | 3.07 µM | 14.6 µM | 2.39 µM | 5.13 µM | 2.15 µM | 5.43 µM | 5.51 µM | 16.2 µM
3 | Cc1ccc(-c2nc3ccc([N+](=O)[O-])cc3[nH]2)cc1 | – | > 100 µM | – | > 100 µM | – | > 100 µM | – | > 100 µM | – | > 100 µM | – | > 100 | – | > 100 µM | – | > 100 µM | – | > 100 µM | – | > 100 µM
4 | O=C(c1ccc(Cl)cc1)c1cnc(Nc2ccccc2Cl)s1 | – | 30.7 µM | – | > 100 µM | – | 53.1 µM | – | 46.7 µM | – | 48.7 µM | – | 52.1 | – | > 100 µM | – | 23.4 µM | – | 74.2 µM | – | 34.9 µM
5 | O=c1c2ccccc2sc2cccc(NCCCN3CCN(CCCNc4cccc5sc6ccccc6c(=O)c45)CC3)c12 | – | > 100 µM | – | > 100 µM | – | > 100 µM | – | > 100 µM | – | > 100 µM | – | > 100 | – | > 100 µM | – | > 100 µM | – | > 100 µM | – | > 100 µM
6 | CCCn1c(N)c(C(=O)N/N=C(/C)c2cc3cccc(OC)c3o2)sc1=S | 53.3 µM | > 100 µM | > 100 µM | > 100 µM | 51.6 µM | > 100 µM | 74 µM | > 100 µM | 26.4 µM | > 100 µM | 45 | > 100 | 18.3 µM | > 100 µM | 49.7 µM | > 100 µM | 48.2 µM | > 100 µM | 28.8 µM | > 100 µM
7 | Cc1[nH]c2ccccc2c1-c1cc(-c2cc(-c3c(C)[nH]c4ccccc34)on2)no1 | – | > 100 µM | – | > 100 µM | – | > 100 µM | – | > 100 µM | – | > 100 µM | – | > 100 | – | > 100 µM | – | > 100 µM | – | > 100 µM | – | > 100 µM
8 | CC(=O)c1cc2c(o1)C(=O)c1ccccc1C2=O | 0.42 µM and 0.548 µM | 1.29 µM and 2 µM | 0.765 µM and 1.66 µM | 4.29 µM and 6.88 µM | 0.19 µM and 0.194 µM | 0.413 µM and 0.495 µM | 0.18 µM and 0.143 µM | 0.332 µM and 0.281 µM | 0.174 µM and 0.186 µM | 0.32 µM and 0.331 µM | 0.177 | 0.346 | 0.284 µM and 0.311 µM | 0.795 µM and 1.53 µM | 0.222 µM and 0.292 µM | 0.437 µM and 0.689 µM | 0.644 µM and 0.409 µM | 1.63 µM and 1.56 µM | 0.248 µM and 1.4 µM | 0.595 µM and 2.9 µM
